Reference: patent publication US9686984B2, “Macrocyclic picolinamides as fungicides” (DOW AGROSCIENCES LLC, priority 2014, dated 2017)
Where two headings read alike, the source gives them in different places.

Tests used:
[1] = tested on: Puccinia triticina; experiment: Wheat Brown Rust (PUCCRT) disease control on wheat seedlings; type: in vivo; details: for pest or weed control at 121.5 g/ha: Low Volume (121.5 g/H); for pest or weed control at 100 µg/mL: High Volume (100 ppm)
Protocol: Technical grades of materials were dissolved in acetone, which were then mixed with nine volumes of water containing 110 ppm Triton X-100. The fungicide solutions were applied onto wheat seedlings using an automated booth sprayer to run-off. All sprayed plants were allowed to air dry prior to further handling. All fungicides were evaluated using the aforementioned method for their activity vs. all target diseases, unless stated otherwise. Wheat leaf blotch and brown rust activity were also evaluated using track spray applications, in which case the fungicides were formulated as EC formulations, containing 0.1% Trycol 5941 in the spray solutions. Wheat plants (variety Yuma) were grown from seed in a greenhouse in 50% mineral soil/50% soil-less Metro mix until the first leaf was fully emerged, with 7-10 seedlings per pot. These plants were inoculated with an aqueous spore suspension of Septoria tritici either prior to or after fungicide treatments. After inoculation the plants were kept in 100% relative humidity (one day in a dark dew chamber followed by two to three days in a lighted dew chamber at 20° C.) to permit spores to germinate and infect the leaf. The plants were then transferred to a greenhouse set at 20° C. for disease to develop. When disease symptoms were fully expressed on the 1st leaves of untreated plants, infection levels were assessed on a scale of 0 to 100 percent disease severity. Percent disease control was calculated using the ratio of disease severity on treated plants relative to untreated plants. Example B: Evaluation of Fungicidal Activity: Wheat Brown Rust (Puccinia triticina; Synonym: Puccinia recondita f. sp. tritici; Bayer code PUCCRT) Wheat plants (variety Yuma) were grown from seed in a greenhouse in 50% mineral soil/50% soil-less Metro mix until the first leaf was fully emerged, with 7-10 seedlings per pot. These plants were inoculated with an aqueous spore suspension of Puccinia triticina either prior to or after fungicide treatments. After inoculation the plants were kept in a dark dew room at 22° C. with 100% relative humidity overnight to permit spores to germinate and infect the leaf. The plants were then transferred to a greenhouse set at 24° C. for disease to develop. Fungicide formulation, application and disease assessment followed the procedures as described in the Example A.

[2] = tested on: Zymoseptoria tritici; experiment: Leaf Blotch of Wheat (SEPTTR) disease control on wheat seedlings; type: in vivo; details: for pest or weed control at 121.5 g/ha: Low Volume (121.5 g/H); for pest or weed control at 100 µg/mL: High Volume (100 ppm)
Protocol: Example A: Evaluation of Fungicidal Activity: Leaf Blotch of Wheat (Mycosphaerella graminicola; Anamorph: Zymoseptoria tritici; Bayer code […]) Technical grades of materials were dissolved in acetone, which were then mixed with nine volumes of water containing 110 ppm Triton X-100. The fungicide solutions were applied onto wheat seedlings using an automated booth sprayer to run-off. All sprayed plants were allowed to air dry prior to further handling. All fungicides were evaluated using the aforementioned method for their activity vs. all target diseases, unless stated otherwise. Wheat leaf blotch and brown rust activity were also evaluated using track spray applications, in which case the fungicides were formulated as EC formulations, containing 0.1% Trycol 5941 in the spray solutions. Wheat plants (variety Yuma) were grown from seed in a greenhouse in 50% mineral soil/50% soil-less Metro mix until the first leaf was fully emerged, with 7-10 seedlings per pot. These plants were inoculated with an aqueous spore suspension of Septoria tritici either prior to or after fungicide treatments. After inoculation the plants were kept in 100% relative humidity (one day in a dark dew chamber followed by two to three days in a lighted dew chamber at 20° C.) to permit spores to germinate and infect the leaf. The plants were then transferred to a greenhouse set at 20° C. for disease to develop. When disease symptoms were fully expressed on the 1st leaves of untreated plants, infection levels were assessed on a scale of 0 to 100 percent disease severity. Percent disease control was calculated using the ratio of disease severity on treated plants relative to untreated plants.

[3] = tested on: Phakopsora pachyrhizi; experiment: Asian Soybean Rust (PHAKPA) disease control; type: in vivo; details: 25 ppm
Protocol: Example H: Evaluation of Fungicidal Activity: Asian Soybean Rust (Phakopsora pachyrhizi; Bayer Code […]) Technical grades of materials were dissolved in acetone, which were then mixed with nine volumes of water containing 0.011% Tween 20. The fungicide solutions were applied onto soybean seedlings using an automated booth sprayer to run-off. All sprayed plants were allowed to air dry prior to further handling. Soybean plants (variety Williams 82) were grown in soil-less Metro mix, with one plant per pot. Two weeks old seedlings were used for testing. Plants were inoculated either 3 days prior to or 1 day after fungicide treatments. Plants were incubated for 24 h in a dark dew room at 22° C. and 100% relative humidity then transferred to a growth room at 23° C. for disease to develop. Disease severity was assessed on the sprayed leaves.

[4] = 24 h, 1 Day Protectant, read-out: PUCCRT disease control, 1 DP
[5] = 72 h, 3 Day Curative, read-out: PUCCRT disease control, 3 DC
[6] = 24 h, 1 Day Protectant, read-out: SEPTTR disease control, 1 DP
[7] = 72 h, 3 Day Curative, read-out: SEPTTR disease control, 3 DC

Row | SMILES | melting point [°C] | pest or weed control at 121.5 g/ha [1, 4] [%] | pest or weed control at 121.5 g/ha [1, 5] [%] | pest or weed control at 121.5 g/ha [2, 6] [%] | pest or weed control at 121.5 g/ha [2, 7] [%] | pest or weed control at 100 µg/mL [1, 4] [%] | pest or weed control at 100 µg/mL [1, 5] [%] | pest or weed control at 100 µg/mL [2, 6] [%] | pest or weed control at 100 µg/mL [2, 7] [%] | PHAKPA disease control, 1DP ([3]; 1 Day Protectant) | PHAKPA disease control, 3DC ([3]; 3 Day Curative)
1 | CCCC[C@H]1[C@H](C)OC(=O)[C@@H](N)CCO[C@@H]1COc1ccccc1.Cl | 195 to 197 |  |  |  |  |  |  |  |  |  | 
2 | COc1ccnc(C(=O)N[C@H]2CCO[C@H](CCc3ccccc3)[C@@H](CCC(C)C)[C@H](C)OC2=O)c1OCOC(C)=O [Compound 26] | 48 to 54 | > 70 | > 70 | > 70 | > 70 |  |  |  |  |  | 
3 | COc1ccnc(C(=O)N[C@H]2CCO[C@H](CCc3ccc(F)cc3)[C@@H](CCC(C)C)[C@H](C)OC2=O)c1OCOC(C)=O [Compound 27] | 49 to 54 | > 70 | > 70 | > 70 | > 70 |  |  |  |  |  | 
4 | COc1ccnc(C(=O)N[C@H]2CCO[C@H](Cc3ccccc3)[C@@H](CCC(C)C)[C@H](C)OC2=O)c1OCOC(C)=O [Compound 29] | 55 to 60 | > 70 | > 70 | > 70 | > 70 |  |  |  |  |  | 
5 | COc1ccnc(C(=O)N[C@H]2CCO[C@H](CCc3ccc(F)cc3)[C@@H](CCC(C)C)[C@H](C)OC2=O)c1OCOC(=O)C(C)C [Compound 39] | 49 to 54 | > 70 | > 70 | > 70 | < 70 |  |  |  |  |  | 
6 | COc1ccnc(C(=O)N[C@H]2CCOC[C@@H](Cc3ccccc3-c3ccccc3)[C@H](C)OC2=O)c1OCOC(=O)C(C)C [Compound 40] | 54 to 59 | > 70 | > 70 | > 70 | > 70 |  |  |  |  |  | 
7 | CCC[C@H]1OCC[C@H](NC(=O)c2nccc(OC)c2OCOC(=O)COCC)C(=O)O[C@@H](C)[C@@H]1Cc1ccccc1 [Compound 43] |  | > 70 | > 70 | > 70 | > 70 | > 70 | > 70 | > 70 | > 70 | A (>70) | A (>70)
8 | CCOCC(=O)Oc1c(OC)ccnc1C(=O)N[C@H]1CCOC[C@@H](Cc2ccccc2)[C@H](C)OC1=O [Compound 48, 2-(((3R,4S,7S)-3-benzyl-4-methyl-6-oxo-1,5-dioxonan-7-yl)carbamoyl)-4-methoxypyridin-3-yl 2-ethoxyacetate] |  | > 70 | > 70 | < 70 | < 70 |  |  |  |  |  | 
9 | CCC[C@H]1OCC[C@H](NC(=O)c2nccc(OC)c2O)C(=O)O[C@@H](C)[C@@H]1Cc1ccccc1 [Compound 50] | 52 to 56 |  |  |  |  | > 70 | > 70 | > 70 | > 70 |  | 
10 | CC[C@H]1OCC[C@H](NC(=O)c2nccc(OC)c2O)C(=O)O[C@@H](C)[C@@H]1Cc1ccc(F)cc1 [Compound 55] |  |  |  |  |  | > 70 | > 70 | > 70 | > 70 |  | 
11 | CCCC[C@H]1OCC[C@H](NC(=O)c2nccc(OC)c2O)C(=O)O[C@@H](C)[C@@H]1Cc1ccc(F)cc1 [Compound 56] |  |  |  |  |  | > 70 | > 70 | < 70 | > 70 |  | 
12 | COc1ccnc(C(=O)N[C@H]2CCO[C@H](CCc3ccccc3)[C@@H](Cc3ccc(F)cc3)[C@H](C)OC2=O)c1O [Compound 57, N-((2R,3S,4S,7S)-3-(4-fluorobenzyl)-4-methyl-6-oxo-2-phenethyl-1,5-dioxonan-7-yl)-3-hydroxy-4-methoxypicolinamide] |  |  |  |  |  | > 70 | < 70 | > 70 | > 70 |  | 
13 | COc1ccnc(C(=O)N[C@H]2CCO[C@H](CCc3ccccc3)[C@@H](CCC(C)C)[C@H](C)OC2=O)c1O [Compound 59] |  |  |  |  |  | > 70 | > 70 | > 70 | > 70 |  | 
14 | COc1ccnc(C(=O)N[C@H]2CCOC[C@@H](CCC(C)C)[C@H](C)OC2=O)c1O [Compound 63] | 49 to 53 |  |  |  |  |  |  |  |  |  | 
15 | CCCC[C@H]1[C@H](C)OC(=O)[C@@H](NC(=O)c2nccc(OC)c2O)CCO[C@@H]1CCc1ccccc1 [Compound 64] |  |  |  |  |  | > 70 | > 70 | > 70 | > 70 |  | 
16 | CCCC[C@H]1[C@H](C)OC(=O)[C@@H](NC(=O)c2nccc(OC)c2O)CCO[C@@H]1CC [Compound 67] | 44 to 46 |  |  |  |  | > 70 | > 70 | > 70 | < 70 |  | 
17 | CCCC[C@H]1[C@H](C)OC(=O)[C@@H](NC(=O)c2nccc(OC)c2O)CCO[C@@H]1COc1ccccc1 [Compound 68] |  |  |  |  |  | > 70 | > 70 | > 70 | < 70 |  | 
18 | CC(C)CC[C@H]1[C@H](C)OC(=O)[C@@H](NC(=O)OC(C)(C)C)CCO[C@@H]1CCc1ccc(F)cc1 [Compound 100] | 39 to 44 |  |  |  |  |  |  |  |  |  | 
19 | CC(C)CC[C@H]1[C@H](C)OC(=O)[C@@H](NC(=O)OC(C)(C)C)CCO[C@@H]1Cc1ccccc1 [Compound 102] | 41 to 44 |  |  |  |  |  |  |  |  |  | 
20 | CC(C)CC[C@@H]1COCC[C@H](NC(=O)OC(C)(C)C)C(=O)O[C@H]1C [Compound 103] | 110 to 112 |  |  |  |  |  |  |  |  |  | 
